Test results from patent publication US9795585B2, “Methods of using L-butylphthalide for the prevention and treatment of cerebral ischemia disease” (priority 2004, dated 2017).
Several values for one entry are separate records, joined by “and”; a condition that tells them apart may be missing. Equal entries are not always repeated.

How the values were obtained:
[1] = test system: cerebral injury-induced cerebral ischemia in rats; test: Neural symptoms induced by cerebral injury in rats; assay type: in vivo, male Wistar rats; settings: 50 mg/kg oral 5 minutes after cerebral injury; scored after 24 hours; vs vehicle control
Protocol: Experimental Animals: male Wistar rats
Experimental Methods: Cerebral injury in rats was caused by allowing a cone-shaped metal object weighing 220 g to freely fall from a position of 30 cm height and to strike the skull cap behind the left coronal suture. dl-, d-, and l-NBP (50 mg/kg) and the vehicle (control group) were orally administered after 5 minutes, and the behavioral changes were scored after 24 hours.

[2] = test system: focal cerebral ischemia in rats; test: Memory disorder induced by focal cerebral ischemia (shuttle box, artery ligation by method of Tamura); assay type: in vivo, male Wistar rats; settings: 15 and 30 mg/kg oral 15 min after operation; observed after 24 hours; vs vehicle control
Protocol: Experimental Animal: The same as Example 1. Experimental Equipment: Shuttle box. Experimental Methods: • 1. Rats were trained to acquire learning and memory; • 2. Artery ligation: Artery ligation was conducted on rats according to the method of Tamura. After 24 hours, the experiment of learning as in step (1) was repeatedly conducted on rats. • 3. Grouping and administration: the rats were divided into 9 groups, which were normal group, pseudo-operation group, ischemia control group, and groups of dl-, d-, and l-NBP (15 and 30 mg/kg). The rats were orally administered at 15 min after the operation, and the changes of latency of active and passive avoidance response were observed after 24 hours.

[3] = test system: cerebral edema induced by cerebral artery ligation in rats; test: Cerebral edema induced by ligation of right middle cerebral artery; assay type: in vivo, male Wistar rats
Protocol: Experimental Animals: the same as Example 1. Experimental Equipments: Oxygen analyzer. Experimental Methods: Cerebral edema was induced by the ligation of right middle cerebral artery of rats. After 15 minutes, dl-, d-, and l-NBP (40 and 80 mg/kg) were orally administered. The rats were sacrificed after 24 hours. The forebrain was removed, and the cerebral hemispheres on the left and right side were weighed. Dry weight was obtained by baking for 24 hours under 100° C. The weight of water in the brain tissue was thus calculated by subtracting of dry weight from wet weight. Then, the tissues was nitrified for 4 hours, and pH was adjusted by using HCl. Next, the ion selective electrode was connected onto the oxygen analyzer, and the concentrations of Na^+ and K^+ in the brain tissue were measured.

[4] = test system: cerebral apoplexy in spontaneous hypertension rats; test: Cerebral apoplexy in salt-loaded spontaneous hypertensive rats; assay type: in vivo
Protocol: Experimental Animals: spontaneous hypertensive rats of 6 weeks old. Experimental Methods: Spontaneous hypertensive rats of 6 weeks old were divided into 8 groups with 10 rats per group. 0.8 to 0.9 g per day of common salt was administered starting from week 6. […] The scores of neurological deficit and the time of death were recorded.

[5] = test system: ischemic brain of decapitated mice; test: Ischemic cerebral metabolism of energy induced by decapitation of mice; assay type: in vivo, KunMing mice; settings: NBP 50 and 100 mg/kg oral, sodium Phenobarbital 225 mg/kg ip.; decapitated 30 minutes after administration; 15 seconds ischemia; vs control group
Protocol: Experimental Animals: KunMing mice.
Test drug: injectable L-butylphthalide was formulated into an emulsion with Tween-80.
Experimental Methods: KunMing mice of 10 to 22 g were divided into 8 groups with 10 mice per group. dl-, d-, and l-NBP (50 and 100 mg/kg/d), sodium Phenobarbital (225 mg/kg ip.) and the vehicle were orally administered. Thirty minutes after administration, the mice were decapitated.
The time between the decapitation and homogenation, which was 15 seconds, was regarded as cerebral ischemic time. Centrifugation and isolation were conducted by the method of Folbergrova, and the contents of lactic acid, ATP and PCr were determined by enzymological method.

normal rats = assay type: in vivo, Male wistar rats; settings: 15 and 30 mg/kg oral; for cerebral blood flow rate in normal rats: 30 minutes after administration
Protocol: (§1) Experimental Animals: Male wistar rats.
(§2) Experimental Equipments: SXP operating microscope, 62TZ-V model high frequency electrotome, solid positioner, Diamond Electro-Tech chemical microsensor 1231, two channel physiological parameter recorder.
(§3) Experimental Methods: • (1) dl-, d-, and l-NBP (15 and 30 mg/kg) and the vehicle were orally administered to the normal rats, and the changes of cerebral blood flow at different time after the administration were measured. • (2) ligation of cerebral artery was conducted on rats according to the method of Tamura. Oral administration was performed at 10 min after the operation. The rats were divided into 9 groups, which were normal group, pseudo-operation group, vehicle control group, and groups of dl-, d-, and l-NBP (15 and 30 mg/kg).

[6] = test system: ischemic region (corpus striatum) of rats with blocked cerebral artery; test: Focal cerebral blood flow after ligation of cerebral artery (method of Tamura); assay type: in vivo, Male wistar rats
Protocol: as §1, §2, §3

[7] = test system: cerebral ischemia-reperfusion rats; test: Behavioral disorder and cerebral infarct area in cerebral ischemia-reperfusion rats (MCAO by nylon suture, 1.5 h); assay type: in vivo, male Wistar rats; settings: for neurological deficit scores (effect in words) / potency on neurological deficit scores compared among l, dl and d-NBP: 24 hours after intravenous injection; for reduction of cerebral infarct area / ED50 (cerebral infarct area): i.v., vs model control group; for cerebral infarct area (effect in words): intravenous administration, effect increases with dose
Source text: Experimental Animal: The same as Example 1
Experimental Equipments: The same as Example 7
Experimental Methods: The rats were anesthetized, and fixed in lateral decubitus position. Under the operating microscope, a midline neck skin incision was made to expose the left common cartotid artery. The surrounding nerves and fascia from the bifurcation of common carotid artery to the vascular of basis cranii were removed.
The internal carotid artery was then separated and carefully separated free from vagus nerve. Pterygopalatine artery was ligated at the root of the internal carotid artery. A 6# needle for injection containing 3# nylon suture (diameter of 0.285 mm) was punctured into the free end of the external carotid artery, advancing the nylon suture into the blood vascular. The needle was carefully withdrawn, and the nylon suture was guided into the internal carotid artery from the distal end of the external carotid artery up till to Willis ring, so as to effectively block the middle cerebral artery.
Depending on the body weight, the distance from the inserted nylon suture to the bifurcation of common carotid artery was 18 to 20 mm. The free end of the external carotid artery and the nylon suture therein were ligated together, in order to prevent bleeding. The muscle and the skin were then sutured layer by layer, and penicillin was dropped to prevent infection. To effectively block the middle cerebral artery, the tip of the nylon suture was made round by burning with the flame, and coated with 0.1% of poly-L-lysine. The nylon suture was baked in a 60° C. oven for 1 hour.
Due to the ability of poly-L-lysine to binding the cell and the protein to the plastic surface, and thus allow the negative charged nylon suture changing into a positive charged one and attract the anion ionic part of the endothelial cell, the nylon suture was closely bond to the endothelial surface, so as to prevent the leakage of the blood from the surrounding of the suture. Only the internal carotoid artery was separated from the animals of pseudo-operation group.
At 1.5 hours after the initiation of MCAO, the nylon suture within the lumen of the internal carotoid artery was carefully withdrawn, and the internal carotoid artery was allowed to reperfusion. The rats were then placed back into the cage.

[8] = 40 and 80 mg/kg oral 15 minutes after ligation, sacrificed after 24 hours
[9] = 25 and 50 mg/kg/d oral until 3 weeks after apoplexy, dose-dependent

CCCCC1OC(=O)c2ccccc21 (racemic) [dl-NBP, butylphthalide]
neural symptoms (behavioral changes scored) [1]: no significant effect
times of active avoidance [2]: not observed
content of Na+ in the brain ([3]; 80 mg/kg oral, decrease seen): no statistical significance
content of water in the brain ([3]; 80 mg/kg oral, decrease seen): no statistical significance
content of K+ in the brain ([3]; 80 mg/kg oral, increase seen): no statistical significance
content of K+ in the brain [3, 8]: no significant effect
content of Na+ in the brain [3, 8]: no significant effect
content of water in the brain [3, 8]: no significant effect
preventive and therapeutic effect on cerebral apoplexy (overall) ([4]; 25 and 50 mg/kg/d oral): merely had such effect at relatively high doses
content of ATP in the brain [5]: no such significant effect
content of PCr in the brain [5]: no such significant effect
content of lactic acid in the brain [5]: no such significant effect
cerebral blood flow rate in normal rats (normal rats): no such effects
focal blood flow in the corpus striatum on the side of the blocked cerebral artery ([6]; 30 mg/kg oral 10 min after operation, similar increase seen): no statistical significance
neurological deficit scores (effect in words) [7]: improvement
potency on neurological deficit scores compared among l, dl and d-NBP [7]: no significant difference
reduction of cerebral infarct area ([7]; first of three doses): 37.9% and 34.8%
ED50 (cerebral infarct area) [7]: 5.5 mg/kg and 5.7 mg/kg
cerebral infarct area (effect in words) [7]: significantly reduce
reduction of cerebral infarct area ([7]; second of three doses): 48.5% and 46.5%
reduction of cerebral infarct area ([7]; third of three doses): 59.2% and 60.9%

CCCC[C@@H]1OC(=O)c2ccccc21 [l-NBP, L-butylphthalide]
neural symptoms (behavioral changes scored) [1]: significantly reduced
times of active avoidance [2]: significantly increased
content of K+ in the brain [3, 8]: increase
content of Na+ in the brain [3, 8]: significantly decrease
content of water in the brain [3, 8]: significantly decrease
time of the occurrence of cerebral apoplexy ([4]; 25 and 50 mg/kg/d oral from week 8, vs vehicle control): significantly delay
neurological deficit after cerebral apoplexy [4, 9]: reduce
viability after the occurrence of cerebral apoplexy [4, 9]: significantly increase
content of ATP in the brain [5]: increased
content of PCr in the brain [5]: increased
content of lactic acid in the brain [5]: significantly decreased
cerebral blood flow rate in normal rats (normal rats): significantly increased
time after administration till which cerebral blood flow rate was maintained at a relative high level (normal rats; normal rats): 50 min
focal blood flow in the corpus striatum on the side of the blocked cerebral artery ([6]; 15 and 30 mg/kg oral 10 min after operation, vs vehicle control, dose-dependent): significantly increase
neurological deficit scores (effect in words) [7]: improvement
potency on neurological deficit scores compared among l, dl and d-NBP [7]: no significant difference
effect on cerebral infarct area relative to d-NBP ([7]; as calculated by ED50): about 1.5 times
reduction of cerebral infarct area ([7]; first of three doses): 40.8%
ED50 (cerebral infarct area) [7]: 3.8 mg/kg
cerebral infarct area (effect in words) [7]: significantly reduce
reduction of cerebral infarct area ([7]; second of three doses): 57.0%
reduction of cerebral infarct area ([7]; third of three doses): 68.5%
